# Experimental data from patent publication US10538555B2, “Macrocyclic inhibitors of the PD-1/PD-L1 and CD80(B7-1)/PD-L1 protein/protein interactions” (BRISTOL-MYERS SQUIBB COMPANY, priority 2014, dated 2020).
# Where a SMILES comes first, the peptide text is derived from it. Bridges are numbered along the chain shown (N, C = ends). [ ]: non-standard residue; d: D form. Phe(3,4,5-F3) = N[C@@H](Cc1cc(F)c(F)c(F)c1)C(=O)O; Phe(3,4-F2) = N[C@@H](Cc1ccc(F)c(F)c1)C(=O)O; NMePhe(4-F) = CN[C@@H](Cc1ccc(F)cc1)C(=O)O; d(cisHyp) = O=C(O)[C@H]1C[C@@H](O)CN1; NMeY = CN[C@@H](Cc1ccc(O)cc1)C(=O)O; Hyp = O=C(O)[C@@H]1C[C@@H](O)CN1; NMeF = CN[C@@H](Cc1ccccc1)C(=O)O; dHyp = O=C(O)[C@H]1C[C@H](O)CN1; NMehSer = CN[C@@H](CCO)C(=O)O; NMeNle = CCCC[C@H](NC)C(=O)O; dPip = O=C(O)[C@H]1CCCCN1; hSer = N[C@@H](CCO)C(=O)O; NMeA = CN[C@@H](C)C(=O)O; Orn = NCCC[C@H](N)C(=O)O; dThz = O=C(O)[C@H]1CSCN1; Dap = NC[C@H](N)C(=O)O
# Target: T1, Human PD-L1/PD-1 (Homo sapiens, UniProt Q9NZQ7)
# T1 construct: TVMV protease cleavage site (C); made in house; host or cells: HEK293T cells
# Experiment: HTRF Human PD-L1/PD-1 binding assay (PD-1-Ig/PD-L1-His)
# Details: PD-L1-His 10 nM, PD-1-Ig 20 nM; class symbol; read-out: HTRF Human PD-L1/PD-1 Binding Assay IC50 Range
# Method in brief: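 Competition of macrocyclic peptides for PD-1/PD-L1 binding measured by HTRF in dPBS containing 0.1% BSA and 0.05% Tween-20. Compound and PD-L1-His (10 nM final) incubated 15 min before PD-1-Ig (20 nM final) and a further 15 min.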
# T1 sequence (Q9NZQ7 with tags, fused parts or gaps): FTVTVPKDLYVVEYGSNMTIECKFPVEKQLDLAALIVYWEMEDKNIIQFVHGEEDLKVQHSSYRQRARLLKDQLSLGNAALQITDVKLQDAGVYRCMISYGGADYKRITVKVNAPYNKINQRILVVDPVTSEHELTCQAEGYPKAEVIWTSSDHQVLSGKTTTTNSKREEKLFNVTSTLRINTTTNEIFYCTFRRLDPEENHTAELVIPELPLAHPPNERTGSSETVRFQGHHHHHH
row,SMILES,IC50 [nM]
1,"CCCC[C@H]1C(=O)N2CCC[C@@H]2C(=O)N[C@@H](CC(=O)O)C(=O)N[C@@H](C(C)C)C(=O)N(C)[C@@H](Cc2ccccc2)C(=O)N[C@@H](Cc2ccc(O)cc2)C(=O)N2CSC[C@@H]2C(=O)N[C@@H](Cc2c[nH]c3ccccc23)C(=O)N[C@@H](Cc2ccc(O)cc2)C(=O)N[C@@H](CC(C)C)C(=O)N[C@H](C(=O)NCC(N)=O)CSCC(=O)N[C@@H](Cc2cc(F)c(F)c(F)c2)C(=O)N(C)[C@@H](Cc2ccccc2)C(=O)N1C [Example 10092] ({CH2CO}-[Phe(3,4,5-F3)][NMeF][NMeNle][dP]DV[NMeF]Y[dThz]WYLCG-NH2; thioether N-13)",1 to 9.9
2,"CCCC[C@H]1C(=O)N2C[C@H](O)C[C@@H]2C(=O)N[C@@H](CC(=O)O)C(=O)N[C@@H](C(C)C)C(=O)N(C)[C@@H](Cc2ccccc2)C(=O)N[C@@H](CC(=O)O)C(=O)N2CSC[C@@H]2C(=O)N[C@@H](Cc2c[nH]c3ccccc23)C(=O)N[C@@H](Cc2ccc(O)cc2)C(=O)N[C@@H](CCO)C(=O)N[C@H](C(=O)NCC(N)=O)CSCC(=O)N[C@@H](Cc2cc(F)c(F)c(F)c2)C(=O)N(C)[C@@H](Cc2ccccc2)C(=O)N1C [Example 10151] ({CH2CO}-[Phe(3,4,5-F3)][NMeF][NMeNle][d(cisHyp)]DV[NMeF]D[dThz]WY[hSer]CG-NH2; thioether N-13)",1 to 9.9

# Next, values leading:
row,IC50 [nM],SMILES
1,1 to 9.9,CCCC[C@H]1C(=O)N(C)[C@@H](CCCC)C(=O)N[C@@H](CCCN)C(=O)N[C@H](C(=O)NCC(N)=O)CSCC(=O)N[C@@H](Cc2ccc(OC)cc2)C(=O)N(C)[C@@H](C)C(=O)N[C@@H](CC(N)=O)C(=O)N2CCC[C@H]2C(=O)N[C@@H](CN)C(=O)N[C@@H](CCCCN)C(=O)N2C[C@H](O)C[C@H]2C(=O)N[C@@H](Cc2c[nH]c3ccccc23)C(=O)N[C@@H](CC(=O)O)C(=O)N[C@@H](Cc2c[nH]c3ccccc23)C(=O)N1C [Example 7108] ({CH2CO}-Y(Me)[NMeA]NP[Dap]K[Hyp]WDW[NMeNle][NMeNle][Orn]CG-NH2; thioether N-14)
2,1 to 9.9,"CCCC[C@H]1C(=O)N2CCC[C@@H]2C(=O)N[C@@H](CC(=O)O)C(=O)N[C@@H](C(C)C)C(=O)N(C)[C@@H](Cc2ccccc2)C(=O)N[C@@H](CCC(=O)O)C(=O)N2CCCC[C@@H]2C(=O)N[C@@H](Cc2c[nH]c3ccccc23)C(=O)N[C@@H](Cc2ccc(O)cc2)C(=O)N[C@@H](CCC(N)=O)C(=O)N[C@H](C(=O)NCC(N)=O)CSCC(=O)N[C@@H](Cc2cc(F)c(F)c(F)c2)C(=O)N(C)[C@@H](Cc2ccc(F)cc2)C(=O)N1C [Example 10563] ({CH2CO}-[Phe(3,4,5-F3)][NMePhe(4-F)][NMeNle][dP]DV[NMeF]E[dPip]WYQCG-NH2; thioether N-13)"

# Same assay, conditions: PD-L1-His 10 nM, PD-1-Ig 20 nM; read-out: HTRF Human PD-L1/PD-1 Binding Assay IC50
row,IC50 [nM],SMILES
1,3.8,"COCC[C@H]1C(=O)N2C[C@@H](O)C[C@@H]2C(=O)N[C@@H](CC(=O)O)C(=O)N[C@@H](C(C)C)C(=O)N(C)[C@@H](Cc2ccccc2)C(=O)N[C@@H](Cc2ccc(OC)cc2)C(=O)N2C[C@@H](O)C[C@@H]2C(=O)N[C@@H](Cc2c[nH]c3ccccc23)C(=O)N[C@@H](Cc2ccc(O)cc2)C(=O)N[C@@H](CCCN)C(=O)N[C@H](C(=O)NCC(N)=O)CSCC(=O)N[C@@H](Cc2ccc(F)c(F)c2)C(=O)N(C)[C@@H](Cc2ccccc2)C(=O)N1C [Example 9239] ({CH2CO}-[Phe(3,4-F2)][NMeF][NMehSer](Me)[dHyp]DV[NMeF]Y(Me)[dHyp]WY[Orn]CG-NH2; thioether N-13)"
2,12.5,"CCCC[C@H]1C(=O)N2C[C@H](O)C[C@@H]2C(=O)N[C@@H](CC(=O)O)C(=O)N[C@@H](C(C)C)C(=O)N(C)[C@@H](Cc2ccccc2)C(=O)N[C@@H](CCC(=O)O)C(=O)N2C[C@H](O)C[C@@H]2C(=O)N[C@@H](Cc2c[nH]c3ccccc23)C(=O)N[C@@H](Cc2ccc(O)cc2)C(=O)N[C@@H](CCCN)C(=O)N[C@H](C(=O)NCC(N)=O)CSCC(=O)N[C@@H](Cc2cc(F)c(F)c(F)c2)C(=O)N(C)[C@@H](Cc2ccc(O)cc2)C(=O)N1C [Example 10638] ({CH2CO}-[Phe(3,4,5-F3)][NMeY][NMeNle][d(cisHyp)]DV[NMeF]E[d(cisHyp)]WY[Orn]CG-NH2; thioether N-13)"
